Measurements from article PMC10004634 (PLOS ONE, 2023).
Like-named read-outs stand apart in the source and are kept apart here.

Tests used:
Assay in all cases: biochemical
Design in all cases: KINOMEscan scanMAX competition binding, DNA-tagged kinases, qPCR read-out, percent control at 300 nM
p38-delta = target: T1, p38-delta (Homo sapiens, UniProt O15264)
T1 construct: gene MAPK13
T1 sequence (O15264 1-365): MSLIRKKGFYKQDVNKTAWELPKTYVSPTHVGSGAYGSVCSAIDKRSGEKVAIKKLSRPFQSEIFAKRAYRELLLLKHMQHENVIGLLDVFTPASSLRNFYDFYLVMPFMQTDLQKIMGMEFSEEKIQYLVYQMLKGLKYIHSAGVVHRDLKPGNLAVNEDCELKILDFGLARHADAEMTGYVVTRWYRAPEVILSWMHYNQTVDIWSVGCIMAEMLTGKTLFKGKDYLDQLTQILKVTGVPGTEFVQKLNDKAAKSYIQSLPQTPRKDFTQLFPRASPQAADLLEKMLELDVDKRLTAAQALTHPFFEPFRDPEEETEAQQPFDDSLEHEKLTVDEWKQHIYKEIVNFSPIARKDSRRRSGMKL

RET(M918T) = RET(M918T) (Homo sapiens, UniProt P07949, M918T)
Sequence of RET(M918T) (P07949 whole entry M918T): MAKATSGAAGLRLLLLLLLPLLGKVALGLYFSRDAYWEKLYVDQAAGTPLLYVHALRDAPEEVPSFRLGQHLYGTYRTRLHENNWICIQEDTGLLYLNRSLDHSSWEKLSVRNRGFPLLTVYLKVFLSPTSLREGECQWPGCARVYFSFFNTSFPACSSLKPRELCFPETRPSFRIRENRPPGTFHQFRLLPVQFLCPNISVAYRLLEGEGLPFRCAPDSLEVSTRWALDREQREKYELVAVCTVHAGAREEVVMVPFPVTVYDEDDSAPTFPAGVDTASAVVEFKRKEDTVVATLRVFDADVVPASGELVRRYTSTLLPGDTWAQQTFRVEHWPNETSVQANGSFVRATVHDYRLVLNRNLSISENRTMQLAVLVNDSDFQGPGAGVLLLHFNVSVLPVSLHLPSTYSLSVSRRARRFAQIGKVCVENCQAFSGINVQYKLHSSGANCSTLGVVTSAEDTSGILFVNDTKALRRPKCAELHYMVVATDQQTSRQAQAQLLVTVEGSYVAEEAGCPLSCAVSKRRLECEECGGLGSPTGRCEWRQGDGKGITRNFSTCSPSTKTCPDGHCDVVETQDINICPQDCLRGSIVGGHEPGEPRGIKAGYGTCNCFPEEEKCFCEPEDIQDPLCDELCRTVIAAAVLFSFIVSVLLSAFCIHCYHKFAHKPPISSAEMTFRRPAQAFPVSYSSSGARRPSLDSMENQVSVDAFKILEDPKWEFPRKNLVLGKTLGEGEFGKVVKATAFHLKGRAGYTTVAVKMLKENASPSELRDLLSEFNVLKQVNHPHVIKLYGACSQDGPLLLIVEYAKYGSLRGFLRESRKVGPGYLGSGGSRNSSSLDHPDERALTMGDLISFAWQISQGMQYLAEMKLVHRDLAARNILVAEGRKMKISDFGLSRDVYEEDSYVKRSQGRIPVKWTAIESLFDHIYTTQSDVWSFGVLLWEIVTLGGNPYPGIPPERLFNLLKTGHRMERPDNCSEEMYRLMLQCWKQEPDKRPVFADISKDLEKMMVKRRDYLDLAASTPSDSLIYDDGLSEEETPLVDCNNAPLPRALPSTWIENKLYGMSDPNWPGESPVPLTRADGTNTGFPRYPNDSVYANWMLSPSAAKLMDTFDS

MET(M1250T) = MET(M1250T) (Homo sapiens, UniProt P08581, M1250T)
Sequence of MET(M1250T) (P08581 whole entry M1250T): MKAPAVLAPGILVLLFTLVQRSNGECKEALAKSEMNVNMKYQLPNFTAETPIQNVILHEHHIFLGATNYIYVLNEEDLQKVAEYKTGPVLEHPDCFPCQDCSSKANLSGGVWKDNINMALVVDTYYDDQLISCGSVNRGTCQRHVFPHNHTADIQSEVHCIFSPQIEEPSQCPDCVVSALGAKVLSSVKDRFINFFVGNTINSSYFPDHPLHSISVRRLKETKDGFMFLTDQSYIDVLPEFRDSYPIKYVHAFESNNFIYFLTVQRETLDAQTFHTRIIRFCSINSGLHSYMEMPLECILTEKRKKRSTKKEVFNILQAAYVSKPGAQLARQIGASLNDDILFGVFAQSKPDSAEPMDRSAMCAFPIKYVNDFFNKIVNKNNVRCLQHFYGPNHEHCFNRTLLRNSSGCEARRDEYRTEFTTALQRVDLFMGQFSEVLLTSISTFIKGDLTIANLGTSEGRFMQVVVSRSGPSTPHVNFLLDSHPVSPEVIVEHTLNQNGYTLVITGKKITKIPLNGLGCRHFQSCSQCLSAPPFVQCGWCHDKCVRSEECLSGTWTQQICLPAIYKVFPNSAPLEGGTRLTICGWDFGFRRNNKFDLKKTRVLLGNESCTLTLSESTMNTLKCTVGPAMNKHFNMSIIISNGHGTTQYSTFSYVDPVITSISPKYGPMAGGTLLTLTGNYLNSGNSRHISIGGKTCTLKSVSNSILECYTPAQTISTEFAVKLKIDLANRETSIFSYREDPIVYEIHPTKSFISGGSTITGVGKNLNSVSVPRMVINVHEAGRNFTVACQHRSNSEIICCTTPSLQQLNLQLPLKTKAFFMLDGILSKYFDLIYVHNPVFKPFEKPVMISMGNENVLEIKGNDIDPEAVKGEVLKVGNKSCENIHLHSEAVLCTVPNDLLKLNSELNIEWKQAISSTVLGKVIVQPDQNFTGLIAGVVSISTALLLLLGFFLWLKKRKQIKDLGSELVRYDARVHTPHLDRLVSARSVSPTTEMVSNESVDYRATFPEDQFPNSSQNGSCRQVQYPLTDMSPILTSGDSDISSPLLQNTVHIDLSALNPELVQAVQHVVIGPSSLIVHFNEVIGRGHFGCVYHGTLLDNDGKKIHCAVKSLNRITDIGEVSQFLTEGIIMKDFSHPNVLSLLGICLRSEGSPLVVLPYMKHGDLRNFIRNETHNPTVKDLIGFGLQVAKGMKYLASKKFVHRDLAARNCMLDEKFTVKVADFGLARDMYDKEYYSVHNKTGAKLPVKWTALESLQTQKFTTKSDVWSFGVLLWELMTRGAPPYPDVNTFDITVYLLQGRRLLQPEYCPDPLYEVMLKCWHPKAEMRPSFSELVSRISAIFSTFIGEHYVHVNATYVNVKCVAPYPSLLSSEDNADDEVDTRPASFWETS

FLT3 = target: T2, FLT3 (Homo sapiens, UniProt P36888)
T2 sequence (P36888 1-993): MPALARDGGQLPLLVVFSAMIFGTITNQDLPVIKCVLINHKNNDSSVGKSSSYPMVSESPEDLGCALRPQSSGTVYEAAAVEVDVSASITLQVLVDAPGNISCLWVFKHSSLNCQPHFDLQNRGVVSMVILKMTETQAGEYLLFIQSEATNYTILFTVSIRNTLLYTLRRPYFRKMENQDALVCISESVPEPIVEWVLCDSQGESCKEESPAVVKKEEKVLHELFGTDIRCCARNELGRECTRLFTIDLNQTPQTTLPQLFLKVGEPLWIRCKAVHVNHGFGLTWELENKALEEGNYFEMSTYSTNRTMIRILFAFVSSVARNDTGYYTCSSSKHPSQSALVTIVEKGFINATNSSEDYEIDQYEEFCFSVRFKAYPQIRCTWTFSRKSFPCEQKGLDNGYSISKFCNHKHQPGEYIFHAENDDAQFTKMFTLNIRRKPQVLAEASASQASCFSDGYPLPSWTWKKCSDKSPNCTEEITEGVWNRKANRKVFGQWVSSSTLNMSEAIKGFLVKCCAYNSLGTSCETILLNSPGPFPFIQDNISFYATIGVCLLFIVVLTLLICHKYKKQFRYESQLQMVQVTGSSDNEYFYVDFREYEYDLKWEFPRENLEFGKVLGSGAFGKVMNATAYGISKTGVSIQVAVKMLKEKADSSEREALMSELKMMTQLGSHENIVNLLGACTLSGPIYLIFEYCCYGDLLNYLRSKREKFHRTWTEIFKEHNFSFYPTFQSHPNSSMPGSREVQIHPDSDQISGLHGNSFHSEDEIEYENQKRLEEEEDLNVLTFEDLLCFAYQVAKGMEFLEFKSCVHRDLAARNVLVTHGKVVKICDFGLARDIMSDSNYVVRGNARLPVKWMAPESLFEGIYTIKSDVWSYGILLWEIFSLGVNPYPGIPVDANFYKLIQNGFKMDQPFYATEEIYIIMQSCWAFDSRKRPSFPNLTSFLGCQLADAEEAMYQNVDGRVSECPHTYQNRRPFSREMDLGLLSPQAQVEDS

AXL = target: T3, AXL (Homo sapiens, UniProt P30530)
T3 sequence (P30530 1-894): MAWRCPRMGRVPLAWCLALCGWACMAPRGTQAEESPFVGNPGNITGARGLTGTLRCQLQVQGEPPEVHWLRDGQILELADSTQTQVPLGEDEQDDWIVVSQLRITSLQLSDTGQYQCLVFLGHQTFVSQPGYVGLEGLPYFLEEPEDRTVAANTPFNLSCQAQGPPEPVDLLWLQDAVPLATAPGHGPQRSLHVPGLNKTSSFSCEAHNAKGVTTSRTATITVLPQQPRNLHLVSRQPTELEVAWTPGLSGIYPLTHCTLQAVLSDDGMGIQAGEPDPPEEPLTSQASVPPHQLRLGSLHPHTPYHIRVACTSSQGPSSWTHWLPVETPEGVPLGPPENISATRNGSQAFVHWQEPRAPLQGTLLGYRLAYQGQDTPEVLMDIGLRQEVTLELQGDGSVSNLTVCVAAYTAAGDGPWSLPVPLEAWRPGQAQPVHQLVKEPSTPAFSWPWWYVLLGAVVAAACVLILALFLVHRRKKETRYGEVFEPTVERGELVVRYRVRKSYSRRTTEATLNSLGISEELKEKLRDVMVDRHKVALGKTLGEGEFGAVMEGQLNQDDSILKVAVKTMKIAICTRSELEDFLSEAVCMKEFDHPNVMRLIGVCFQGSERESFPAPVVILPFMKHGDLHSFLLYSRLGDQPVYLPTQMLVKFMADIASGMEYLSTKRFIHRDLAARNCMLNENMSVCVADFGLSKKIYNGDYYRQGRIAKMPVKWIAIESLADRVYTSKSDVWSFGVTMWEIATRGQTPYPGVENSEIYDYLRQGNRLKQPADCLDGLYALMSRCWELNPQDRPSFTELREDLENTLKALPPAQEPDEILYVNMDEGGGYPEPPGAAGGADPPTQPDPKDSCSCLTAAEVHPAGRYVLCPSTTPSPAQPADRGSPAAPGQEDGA

[1] = read-out: Percent control / Tirabrutinib
[2] = read-out: Percent control / Zanubrutinib
[3] = read-out: Percent control / Acalabrutinib
[4] = read-out: Percent control / Ibrutinib

**Q.** CC#CC(=O)N1CC[C@@H](n2c(=O)n(-c3ccc(Oc4ccccc4)cc3)c3c(N)ncnc32)C1 [Tirabrutinib] was tested. Which remaining binding at 0.3 µM (p38-delta; [1]) did it give?
**A.** Its remaining binding at 0.3 µM is 94%.

**Q.** What about the remaining binding at 0.3 µM (RET(M918T); [1]) of the same compound?
**A.** The remaining binding at 0.3 µM was 91%.

**Q.** What about the remaining binding at 0.3 µM (MET(M1250T); [1]) of the same compound?
**A.** The remaining binding at 0.3 µM was 93%.

**Q.** What about the remaining binding at 0.3 µM (FLT3; [1]) of the same compound?
**A.** The remaining binding at 0.3 µM was 98%.

**Q.** What does the source list for C=CC(=O)N1CCC([C@@H]2CCNc3c(C(N)=O)c(-c4ccc(Oc5ccccc5)cc4)nn32)CC1 [Zanubrutinib]?
**A.** remaining binding at 0.3 µM (AXL; [2]): 91%; remaining binding at 0.3 µM (p38-delta; [2]): 100%; remaining binding at 0.3 µM (RET(M918T); [2]): 92%; remaining binding at 0.3 µM (MET(M1250T); [2]): 100%; remaining binding at 0.3 µM (FLT3; [2]): 90%

**Q.** Which remaining binding at 0.3 µM (AXL; [3]) does the source give for CC#CC(=O)N1CCC[C@H]1c1nc(-c2ccc(C(=O)Nc3ccccn3)cc2)c2c(N)nccn12 [Acalabrutinib] here?
**A.** The remaining binding at 0.3 µM was 88%.

**Q.** And the remaining binding at 0.3 µM (p38-delta; [3])?
**A.** The remaining binding at 0.3 µM was 95%.

**Q.** And the remaining binding at 0.3 µM (MET(M1250T); [3])?
**A.** Its remaining binding at 0.3 µM is 93%.

**Q.** And the remaining binding at 0.3 µM (FLT3; [3])?
**A.** The remaining binding at 0.3 µM was 86%.

**Q.** With C=CC(=O)N1CCC[C@@H](n2nc(-c3ccc(Oc4ccccc4)cc3)c3c(N)ncnc32)C1 [Ibrutinib] as the compound, how does the remaining binding at 0.3 µM (AXL; [4]) read?
**A.** Its remaining binding at 0.3 µM is 85%.

**Q.** And the remaining binding at 0.3 µM (RET(M918T); [4])?
**A.** Its remaining binding at 0.3 µM is 32%.

**Q.** What about the remaining binding at 0.3 µM (FLT3; [4]) of the same compound?
**A.** Its remaining binding at 0.3 µM is 47%.
